Experimental data as given in EP2886531B1, “Aspartic acid derivatives” (Merck Patent GmbH, priority 2013, dated 2015).

Key:
[1] = Prolonged piperidine treatment of VKDNYI peptide resin (aspartimide formation, Asp-Asn motif); format: physicochemical; settings: piperidine
Description: (§1) Automated peptide synthesis, piperidine treatments of the resin samples and final TFA cleavages are performed as described in the protocols of example 4. In addition, 50 mg peptide resin samples are treated with a solution of DBU/piperidine/DMF (1:19:79) over 225 minutes to investigate the aspartimide formation at harsher Fmoc deprotection conditions often used for complete Fmoc removals in aggregation prone sequences.
(§2) The resulting peptide samples are analysied and all relevant impurities identified by UPLC-MS analysis (Xevo Waters Q-TOF-1, lock mass = 556.277 (leu-enkephaline), LC-conditions: CHS 18 1,7 µm (100x2.1 mm) at 40°C; water acetonitrile gradient of 5% to 35 % B over 10 min where buffer A is 0.1 % formic acid in water and buffer B is 0.1 % formic acid in acetonitrile, flow 0.6 ml/min).
In table 2 the amounts of by-products formed after the prolonged exposure of the peptide resins to piperidine (110 Fmoc removal cycles) are summarized for all side-chain protections used in this invention. […] Table 2: Results after 110 Fmoc removal cycles using piperidine, target peptide = VKDNYI, the aspartimide (Asu) derived by products are the aspartimide itself and the sum of piperidides

[2] = Prolonged DBU treatment of VKDNYI peptide resin (aspartimide formation); format: physicochemical
Description: as §1, §2
In table 3 the amounts of by-products formed after prolonged DBU treatments are summarized for all side-chain protections used in this invention. […] Since the DBU mediated Fmoc removals are much quicker than the piperidine mediated, this experiment again represents a Fmoc SPPS assembly of an 100mer after introducing the aspartic acid residue using exclusively DBU for Fmoc cleavage. Table 3: Results after 110 Fmoc removal cycles using DBU, target peptide = VKDNYI, the aspartimide (Asu) derived by-products are the aspartimide itself and the sum of piperidides

[3] = Prolonged piperidine treatment of VKDRYI peptide resin (aspartimide formation, Asp-Arg motif); format: physicochemical
Description: (§3) Automated peptide synthesis, piperidine treatments of the resin samples and final TFA cleavages are performed as described in the protocols of example 4. In addition, to evaluate the advantage of the protecting groups used in this invention in heat accelerated SPPS we treat 50 mg peptide resin samples with a solution of 20% piperidine in DMF at 60°C over 200 minutes. Microwave assisted peptide synthesis conditions are often used to shorten peptide synthesis times and increase coupling reaction and Fmoc deprotection.
(§4) In table 4 the amounts of by-products formed after the prolonged exposure of the peptide resins to piperidine (110 Fmoc removal cycles) are summarized for all side-chain protections used in this invention. Table 4: Results after 110 Fmoc removal cycles using piperidine, target peptide sequence = VKDRYI, the aspartimide (Asu) derived by-products are the aspartimide itself and the sum of piperidides

[4] = Prolonged piperidine treatment at 60°C of VKDRYI peptide resin (aspartimide formation); format: physicochemical
Description: as §3
The application of microwave heating to SPPS is accelerating coupling and deprotection reactions leading to shorter cycle times, higher repetitive yields, and ultimately purer peptides. On the other hand, microwave energy can also lead to increased levels of aspartimide by-products. To overcome that drawback we evaluated the advantage of the side-chain protections used in this invention by exposing the peptide resins to Fmoc removal cycles at 60 degrees Celsius.
as §4, with “5” for “4”, “at 60 degree Celsius (100” for “(110”, “invention. […]” for “invention.”, “5:” for “4:”, “100” for “110”, “piperidine at 60°C,” for “piperidine,”

[5] = Prolonged treatment of VKDGYI peptide resin with 1 M Oxyma Pure and 20 % piperidine (aspartimide formation); format: physicochemical; settings: VKDGYI
Description: [drawing 14] 50 mg samples of the corresponding aspartic acid derivatives of example 4 are treated over 18 hours with a solution of 1 M Oxyma Pure and 20 % piperidine in dimethylformamide. The peptides are cleaved off the resin with 95 % TFA and analysed with HPLC as well as MS to identify all aspartimide related products (conditions see example 4). The results are summarized in table 6: Table 6: Results after 110 Fmoc removal cycles using an acidic modifier in the piperidine mediated Fmoc removal cocktails, target peptide = VKDG YI, the aspartimide derived by-products are the aspartimide itself and the sum of piperidides

[6] = Prolonged piperidine treatment of VKDGYI peptide resin (aspartimide formation, Asp-Gly motif)
[7] = VKDNYI, 110 Fmoc removal cycles
[8] = VKDNYI, DBU/piperidine/DMF (1:19:79), 225 minutes
[9] = VKDRYI, 110 Fmoc removal cycles
[10] = VKDRYI, 20% piperidine in DMF at 60°C, 200 minutes
[11] = VKDGYI, 20 % piperidine in dimethylformamide

Asu per 10' cycle ([1]; VKDNYI): 1.6
Half-life in cycles ([1]; VKDNYI): 40 cycles
D/L-Asu [%] [1, 7]: 4.9%
piperidides [%] [1, 7]: 79.0%
target [%] ([1]; target peptide VKDNYI, 110 Fmoc removal cycles): 16.1%
Asu per 2' cycle ([2]; VKDNYI, DBU): 5.2
Half-life in cycles ([2]; VKDNYI, DBU, 2' cycles): 13 cycles
D/L-Asu [%] [2, 8]: 2.6%
piperides [%] [2, 8]: 97.1%
target [%] ([2]; target peptide VKDNYI, DBU/piperidine/DMF (1:19:79) over 225 minutes, 110 Fmoc removal cycles): 0.3%
Asu per 10' cycle ([3]; VKDRYI): 1.3
Half-life in cycles ([3]; VKDRYI): 55 cycles
D/L-Asu [%] [3, 9]: 16.9%
piperidides [%] [3, 9]: 58.4%
target [%] ([3]; target peptide VKDRYI, 110 Fmoc removal cycles): 24.7%
D/L-Asu [%] [4, 10]: 28.7%
piperidides [%] [4, 10]: 41.0%
Asu per 10' cycle ([4]; VKDRYI, piperidine at 60°C): 1.2
Half-life in cycles ([4]; VKDRYI, piperidine at 60°C): 58 cycles
target [%] ([4]; target peptide VKDRYI, 20% piperidine in DMF at 60°C over 200 minutes, 100 Fmoc removal cycles): 30.3%
Asu per 10' cycle ([5]; Oxyma Pure +): 0.45
Asu [%] ([5]; Oxyma Pure +, 18 hours): 8.8%
piperidides [%] ([5]; Oxyma Pure +, 18 hours): 30.1%
target [%] ([5]; Oxyma Pure +: 1 M Oxyma Pure and 20 % piperidine in dimethylformamide, 18 hours): 61.1%
Asu per 10' cycle [%] [6, 11]: 2.3%
Half-life in 10' cycles [6, 11]: 30 10' cycles
Asu [%] ([6]; VKDGYI, 20 % piperidine in dimethylformamide, 18 hours, aspartimide): 6.4%
piperidides [%] ([6]; VKDGYI, 20 % piperidine in dimethylformamide, 18 hours, sum of piperidides): 85.6%
Asu [%] ([6]; VKDGYI, Oxyma Pure -): 6.4%
Asu per 10' cycle ([6]; VKDGYI, Oxyma Pure -): 2.3
piperidides [%] ([6]; VKDGYI, Oxyma Pure -): 85.6%
target [%] ([6]; VKDGYI, Oxyma Pure -: 20 % piperidine only, 18 hours (as Table 1)): 8.0%
target [%] ([6]; target peptide VKDGYI, 20 % piperidine in dimethylformamide over 18 hours, 110 Fmoc removal cycles): 8.0%
Structure (SMILES): CC(C)(C)OC(=O)C[C@H](NC(=O)OCC1c2ccccc2-c2ccccc21)C(=O)O [tBu, Fmoc-Asp(OtBu)-OH, reference compound]
